The assay has as its system PMA-induced release of endogenous HB-EGF from human U-937 cells. The experiment in a line: ELISA-based HB-EGF release assay, PMA-induced, U-937 cells. The class given is cell-based. To be noted: PMA 25 ng/ml, 6 hours, murine (m) and chimeric (ch) antibodies and IgG at 3 μg/ml, Batimastat at 10 μM. How it is done: In brief, on day 1, Nunc black MaxiSorp® 96-well plates (Thermo Fisher Scientific, USA) were coated for 7 hours with 100 μl per well of rat anti-human HB-EGF capture antibody (provided as part of the DuoSet ELISA kit) at 2 μg/ml TBS at room temperature. Capture antibody solution was removed and MaxiSorp® plates were blocked with 300 μl per well of TBS, 1% BSA at room temperature for 3 hours. […]
Following another round of 4 times washing with 350 μl TBS-T (Carl Roth, Germany) per well on a 96-head plate washer (Tecan Group, Switzerland) and careful removal of all buffer traces after the fourth cycle, 100 μl AttoPhos substrate solution (Promega, USA) per well was added for incubation in the dark at room temperature for 1 hour. Using an infinite M1000 (Tecan Group, Switzerland) microplate reader, the fluorescence of each well was collected at an excitation wavelength of 435 nm and an emission wavelength of 555 nm. […]
A general note: An ELISA detects its analyte on a solid surface through an enzyme-linked reagent.

For orientation: inhibition means how much of the control response was suppressed.

`CNC(=O)[C@H](Cc1ccccc1)NC(=O)[C@H](CC(C)C)[C@H](CSc1cccs1)C(=O)NO` [Batimastat]: the inhibition at 10 µM was 100%.

The record behind these values is patent US20240287172A1, “PROTEIN BINDERS TO IRHOM2 EPITOPES” (SCIRHOM GMBH, priority 2019, published 2024).
